Laboratory results as given in the supplement of paper PMC10307832.

How the values were obtained:
Experiment in all cases: relative viability (nuclei count vs DMSO), 5 days (fraction); higher = more cells survive
KIN001-266 + Olaparib = compound: CCN1CCC(CC1)N2C=C(N=N2)CNC3=CC4=C(C(=CN=C4C(=C3)Cl)C#N)NC5=CC(=C(C=C5)F)Cl [KIN001-266] + O=C(c1cc(Cc2n[nH]c(=O)c3ccccc23)ccc1F)N1CCN(C(=O)C2CC2)CC1 [Olaparib] (partner 8 µM)
How it was run: (§1)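 Lung cancer cell lines, seeded in 1536-well plates, were treated the following day by pin tool with a single drug or with five library-drug doses (not always all listed) in √10 steps on top of a fixed anchor-drug dose. Cells were fixed and nuclei stained in one step after 5 days, and nuclei were counted. Relative viability is the nuclei count for treated wells divided by that for vehicle wells, reported as medians of duplicate plates.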

KIN001-266 + AZD7762 = compound: CCN1CCC(CC1)N2C=C(N=N2)CNC3=CC4=C(C(=CN=C4C(=C3)Cl)C#N)NC5=CC(=C(C=C5)F)Cl [KIN001-266] + NC(=O)Nc1cc(-c2cccc(F)c2)sc1C(=O)N[C@H]1CCCNC1 [AZD7762] (partner 0.2 µM)
How it was run: as §1

KIN001-266 + Lapatinib = compound: CCN1CCC(CC1)N2C=C(N=N2)CNC3=CC4=C(C(=CN=C4C(=C3)Cl)C#N)NC5=CC(=C(C=C5)F)Cl [KIN001-266] + CS(=O)(=O)CCNCc1ccc(-c2ccc3ncnc(Nc4ccc(OCc5cccc(F)c5)c(Cl)c4)c3c2)o1 [Lapatinib] (partner 2 µM)
How it was run: as §1

KIN001-266 + Decitabine = compound: CCN1CCC(CC1)N2C=C(N=N2)CNC3=CC4=C(C(=CN=C4C(=C3)Cl)C#N)NC5=CC(=C(C=C5)F)Cl [KIN001-266] + Nc1ncn([C@H]2C[C@H](O)[C@@H](CO)O2)c(=O)n1 [Decitabine] (partner 2 µM)
How it was run: as §1

| Cell Line | relative viability (KIN001-266 + Olaparib; first compound 0.08 µM) | relative viability (KIN001-266 + Olaparib; first compound 0.253 µM) | relative viability (KIN001-266 + Olaparib; first compound 0.8 µM) | relative viability (KIN001-266 + Olaparib; first compound 2.53 µM) | relative viability (KIN001-266 + Olaparib; first compound 8 µM) | relative viability (KIN001-266 + AZD7762; first compound 0.08 µM) | relative viability (KIN001-266 + AZD7762; first compound 0.253 µM) | relative viability (KIN001-266 + AZD7762; first compound 0.8 µM) | relative viability (KIN001-266 + AZD7762; first compound 2.53 µM) | relative viability (KIN001-266 + AZD7762; first compound 8 µM) | relative viability (KIN001-266 + Lapatinib; first compound 0.08 µM) | relative viability (KIN001-266 + Lapatinib; first compound 0.253 µM) | relative viability (KIN001-266 + Lapatinib; first compound 0.8 µM) | relative viability (KIN001-266 + Lapatinib; first compound 2.53 µM) | relative viability (KIN001-266 + Lapatinib; first compound 8 µM) | relative viability (KIN001-266 + Decitabine; first compound 0.08 µM) | relative viability (KIN001-266 + Decitabine; first compound 0.253 µM) | relative viability (KIN001-266 + Decitabine; first compound 0.8 µM) | relative viability (KIN001-266 + Decitabine; first compound 2.53 µM) | relative viability (KIN001-266 + Decitabine; first compound 8 µM) |
| --- | --- | --- | --- | --- | --- | --- | --- | --- | --- | --- | --- | --- | --- | --- | --- | --- | --- | --- | --- | --- |
| 201T | 0.822 | 0.852 | 0.809 | 0.855 | 0.816 | 0.66 | 0.629 | 0.577 | 0.54 | 0.681 | 1.05 | 0.981 | 0.992 | 1.07 | 1.05 | 0.848 | 0.885 | 0.868 | 0.78 | 0.842 |
| A-427 | 0.723 | 0.789 | 0.726 | 0.615 | 0.639 | 0.722 | 0.697 | 0.761 | 0.644 | 0.599 | 1.07 | 1.08 | 1.04 | 0.921 | 1.01 | 0.616 | 0.566 | 0.521 | 0.508 | 0.535 |
| ABC-1 | 0.737 | 0.583 | 0.767 | 0.795 | 0.863 | 0.991 | 0.856 | 0.745 | 0.761 | 0.837 | 1.18 | 1.08 | 1.12 | 1.14 | 1.1 | 1.19 | 1.18 | 1.07 | 1.09 | 0.855 |
| BEN | 1 | 0.988 | 1.12 | 1.17 | 0.977 | 0.729 | 0.705 | 0.676 | 0.539 | 0.709 | 0.779 | 0.764 | 0.77 | 0.835 | 0.953 | 0.975 | 0.696 | 0.754 | 0.623 | 0.752 |
| CAL-12T | 0.785 | 0.732 | 0.663 | 0.652 | 0.633 | 0.633 | 0.639 | 0.574 | 0.642 | 0.606 | 0.826 | 0.706 |  | 0.679 | 0.626 |  |  |  |  |  |
| COR-L23 | 0.372 | 0.367 | 0.345 | 0.293 | 0.294 |  |  |  |  |  | 0.797 | 0.894 | 0.998 | 0.904 | 0.983 | 0.487 | 0.497 | 0.466 | 0.464 | 0.389 |
| COR-L 105 | 0.729 | 0.619 | 0.651 | 0.521 | 0.566 |  |  |  |  |  | 0.349 | 0.393 | 0.34 | 0.417 | 0.381 | 0.584 | 0.661 | 0.641 | 0.725 | 0.677 |
| Calu-6 | 0.649 | 0.653 | 0.587 | 0.542 | 0.365 |  |  |  |  |  | 1.09 | 1.05 | 1.02 | 1 | 0.899 |  |  |  |  |  |
| ChaGo-K-1 | 0.401 | 0.422 | 0.301 | 0.282 | 0.227 | 0.858 | 0.924 | 0.856 | 0.811 | 0.585 |  |  |  |  |  | 0.502 | 0.517 | 0.508 | 0.506 | 0.38 |
| EKVX | 0.914 | 0.899 | 0.844 | 0.78 | 0.865 | 0.706 | 0.824 | 0.728 | 0.667 | 0.657 | 0.284 | 0.182 | 0.204 | 0.202 | 0.171 | 0.364 | 0.422 | 0.368 | 0.364 | 0.358 |
| EMC-BAC-2 | 0.546 | 0.519 | 0.449 | 0.437 | 0.46 | 1.17 | 1.18 | 1.15 | 1.16 | 1.21 | 0.906 | 0.907 | 0.879 | 0.917 | 0.942 | 1.04 | 1.04 | 0.965 | 0.984 | 0.988 |
| EPLC-272H | 0.885 | 0.869 | 1.08 | 0.643 | 0.273 | 0.304 | 0.212 | 0.191 | 0.185 | 0.371 | 1.03 | 0.982 | 1.05 | 0.732 | 0.797 | 0.382 | 0.404 | 0.338 | 0.344 | 0.319 |
| H3255 | 0.583 | 0.55 | 0.565 | 0.517 | 0.455 | 0.846 | 0.731 | 0.792 | 0.908 | 0.8 | 0.346 | 0.219 | 0.283 | 0.251 | 0.294 | 0.632 | 0.557 | 0.587 | 0.618 | 0.713 |
| HARA | 0.798 | 0.762 | 0.806 | 0.559 | 0.467 | 0.306 | 0.369 | 0.364 | 0.233 | 0.261 | 0.929 | 0.689 | 0.842 | 0.823 | 0.657 | 0.416 | 0.616 | 0.635 | 0.57 | 0.439 |
| HCC-15 | 0.743 | 0.747 | 0.64 | 0.651 | 0.511 | 1.23 | 1.14 | 1.18 | 0.6 | 1.06 | 0.779 | 0.851 | 0.731 | 0.734 | 0.646 | 0.679 | 0.691 | 0.539 | 0.497 | 0.488 |
| HCC-44 | 0.994 | 0.959 | 0.944 | 0.884 | 0.993 | 1.04 | 1.01 | 0.989 | 0.969 | 1.05 | 0.964 | 1.03 | 0.959 | 0.985 | 1.02 | 0.977 | 0.964 | 1.01 | 0.847 | 0.99 |
| HCC-78 | 0.832 | 0.793 | 0.767 | 0.841 | 0.677 | 0.654 | 0.603 | 0.469 | 0.619 | 0.694 | 0.79 | 0.612 | 0.597 | 0.731 | 0.773 | 0.813 | 0.684 | 0.675 | 0.759 | 0.715 |
